Test results as given in ChEMBL document CHEMBL4118195, “Synthesis and profiling of benzylmorpholine 1,2,4,5-tetraoxane analogue N205: Towards tetraoxane scaffolds with potential for single dose cure of malaria” (Bioorg Med Chem, 2018).

How the values were obtained:
[1] = Half life in rat blood by LC-MS method; format: ADME, tissue-based
[2] = test system: Plasmodium falciparum; experiment: Antimalarial activity against Plasmodium falciparum 3D7 infected in human erythrocytes after 48 hrs by SYBR Green I dye-based fluorescence assay; format: functional, organism-based; settings: 3D7, 48 h
[3] = test system: Plasmodium berghei; experiment: Antimalarial activity against Plasmodium berghei infected in mouse assessed as reduction in parasitemia at 30 mg/kg, po administered as single dose measured on day 3 relative to control; format: functional; design: scale not given: the % may be the effect or the level left
[4] = test system: Plasmodium berghei; experiment: Antimalarial activity against Plasmodium berghei infected in mouse assessed as mouse mean survival days at 30 mg/kg, po administered as single dose; format: functional
[5] = Drug level in human liver microsomes treated with N205 at 5 uM after 60 mins by UPLC-MS analysis; format: ADME, microsome; settings: 1 h
[6] = Retention time of the compound; format: physicochemical
[7] = Drug level in rat liver microsomes treated with N205 at 5 uM after 60 mins by UPLC-MS analysis; format: ADME, microsome; settings: 1 h
[8] = Drug level in mouse liver microsomes treated with N205 at 5 uM after 60 mins by UPLC-MS analysis; format: ADME, microsome; settings: 1 h
[9] = Metabolic stability in rat blood after 2 to 4 hrs by LC-MS method; format: ADME, tissue-based
[10] = Metabolic stability in human blood after 2 to 4 hrs by LC-MS method; format: ADME, tissue-based
[11] = Half life in Sprague-Dawley rat at 10 mg/kg, po; format: ADME, organism-based; settings: in vivo
[12] = test system: Plasmodium falciparum; experiment: Antimalarial activity against Plasmodium falciparum Pf3D70087/N9 infected in humanized NOD.Cg-Prkdcscid Il2rgtm1Wjl/SzJ mouse assessed as reduction in parasitemia administered 4 daily doses by SYTO-16 dye-based flow cytometric analysis; format: functional
[13] = test system: Plasmodium falciparum; experiment: Antimalarial activity against Plasmodium falciparum Pf3D70087/N9 infected in po dosed humanized NOD.Cg-Prkdcscid Il2rgtm1Wjl/SzJ mouse assessed as compound concentration in whole blood require to reduce parasitemia in peripheral blood by 90% administered as single dose measured on day 7 post infection by SYTO-16 dye-based flow cytometric analysis; format: functional, organism-based
[14] = test system: Plasmodium falciparum; experiment: Antimalarial activity against Plasmodium falciparum Pf3D70087/N9 infected in po dosed humanized NOD.Cg-Prkdcscid Il2rgtm1Wjl/SzJ mouse assessed as reduction in parasitemia administered as single dose measured on day 7 post infection by SYTO-16 dye-based flow cytometric analysis; format: functional; settings: 168 h
[15] = Solubility in 0.1 N HCl buffer at pH 1 after 4 hrs by HPLC analysis; format: physicochemical
[16] = Protein binding in human plasma at 2000 ng/ml after 6 hrs by equilibrium dialysis method; format: ADME, cell-free; settings: read-out: PB
[17] = Solubility in PH 7.4 PBS buffer after 4 hrs by HPLC analysis; format: physicochemical
[18] = Solubility in 0.01 N HCl buffer at pH 2 after 4 hrs by HPLC analysis; format: physicochemical
[19] = Solubility in pH 2 citric acid monophosphate buffer after 4 hrs by HPLC analysis; format: physicochemical
[20] = Protein binding in human liver microsomes at 1 uM by ultracentrifugation method; format: ADME, microsome; settings: read-out: PB
[21] = Volume of distribution at steady state in Sprague-Dawley rat plasma at 100 mg/kg, po administered via gavage or iv administered as 10 mins infusion by LC/MS analysis; format: ADME, organism-based; settings: read-out: Vdss
[22] = Aqueous solubility after 4 hrs by HPLC analysis; format: physicochemical; settings: water
[23] = Clearance in Sprague-Dawley rat plasma at 100 mg/kg, po administered via gavage or administered as 10 mins infusion iv by LC/MS analysis; format: ADME, organism-based
[24] = Half life in rat blood after 4 hrs by LC-MS method; format: ADME, tissue-based
[25] = Half life in iv dosed Sprague-Dawley rat plasma administered as 10 mins infusion by LC/MS analysis; format: ADME, organism-based
[26] = Drug degradation in human blood after 4 hrs by LC-MS method; format: ADME, tissue-based; settings: read-out: Drug degradation
[27] = Solubility in pH 6.5 FaSSIF after 4 hrs by HPLC analysis; format: physicochemical
[28] = Solubility in pH 5 FeSSIF after 4 hrs by HPLC analysis; format: physicochemical
[29] = Oral bioavailability in Sprague-Dawley rat at 100 mg/kg administered via gavage by LC/MS analysis; format: ADME, organism-based; settings: in vivo

Question: With `O=C(c1ccc(C2CCC3(CC2)OOC2(OO3)C3CC4CC(C3)CC2C4)cc1)N1CCCNCC1` (centres undefined) as the molecule, how does the half-life [1] read?
Answer: Its half-life is less than 4 h.

Question: What about the IC50 [2] of the same molecule?
Answer: The IC50 was 0.82 nM.

Question: Which Activity [3] does the source give for `CS(=O)(=O)O.FC1CCN(Cc2ccc(C3CCC4(CC3)OOC3(OO4)C4CC5CC(C4)CC3C5)cc2)CC1` (centres undefined) here?
Answer: The Activity was 99.98%.

Question: And the MSD [4]?
Answer: The MSD was 13 days.

Question: What does the source list for `O=C1CCC(c2ccc(CN3CCOCC3)cc2)CC1`?
Answer: Drug metabolism [5]: Metabolite_Detected; Retention_time [6]: 0.84 min; Drug metabolism [7]: Metabolite_Detected; Drug metabolism [8]: Metabolite_Detected

Question: For `O=C(c1ccc(C2CCC3(CC2)OOC2(OO3)C3CC4CC(C3)CC2C4)cc1)N1CCOCC1` (centres undefined), which half-life [1] is on record?
Answer: The half-life was less than 4 h.

Question: And the IC50 [2]?
Answer: Its IC50 is 7.1 nM.

Question: Which half-life [1] does the source give for `NC1CCN(C(=O)c2ccc(C3CCC4(CC3)OOC3(OO4)C4CC5CC(C4)CC3C5)cc2)CC1` (centres undefined) here?
Answer: Its half-life is less than 4 h.

Question: What about the Activity [3] of the same molecule?
Answer: Its Activity is 99%.

Question: What about the MSD [4] of the same molecule?
Answer: Its MSD is 8 days.

Question: What about the IC50 [2] of the same molecule?
Answer: The IC50 was 4.2 nM.

Question: With `FC1CCN(Cc2ccc(C3CCC4(CC3)OOC3(OO4)C4CC5CC(C4)CC3C5)cc2)CC1` (centres undefined) as the molecule, how does the Stability [9] read?
Answer: Its Stability is “Stable”.

Question: And the Stability [10]?
Answer: The Stability was “Stable”.

Question: And the IC50 [2]?
Answer: The IC50 was 1.8 nM.

Question: For `CN1CCN(C2CCN(C(=O)CC3CCC4(CC3)OOC3(OO4)C4CC5CC(C4)CC3C5)CC2)CC1` (centres undefined), which half-life [11] is on record?
Answer: Its half-life is 3.5 h.

Question: What about the Activity [3] of the same molecule?
Answer: The Activity was 99.98%.

Question: And the MSD [4]?
Answer: The MSD was 11.4 days.

Question: Which results are given for `C[C@H]1[C@H](OC(=O)CCC(=O)O)O[C@@H]2O[C@@]3(C)CC[C@H]4[C@H](C)CC[C@@H]1[C@@]24OO3` [ARTESUNATE]?
Answer: Activity [3]: 99.09%; MSD [4]: 6.8 days; ED90 [12]: 10 mg/kg

Question: With `c1cc(C2CCC3(CC2)OOC2(OO3)C3CC4CC(C3)CC2C4)ccc1CN1CCOCC1` (centres undefined) as the molecule, how does the AUCED90 [13] read?
Answer: The AUCED90 was less than 0.75 µg·h/mL.

Question: Which Activity [3] does the source give for `c1cc(C2CCC3(CC2)OOC2(O3)C3CC4CC(C3)CC2C4)ccc1OCCN1CCOCC1` (centres undefined) [listing 1 of 2 here] here?
Answer: The Activity was 99.4%.

Question: What about the MSD [4] of the same molecule?
Answer: The MSD was 30 days.

Question: What about the ED90 [14] of the same molecule?
Answer: The ED90 was 6.2 mg/kg.

Question: What about the IC50 [2] of the same molecule?
Answer: The IC50 was 8 nM.

Question: Which half-life [1] does the source give for `O=C(c1ccc(C2CCC3(CC2)OOC2(OO3)C3CC4CC(C3)CC2C4)cc1)N1CCSCC1` (centres undefined) here?
Answer: The half-life was less than 4 h.

Question: What about the IC50 [2] of the same molecule?
Answer: The IC50 was 15 nM.

Question: For `CC(C)(N)CNC(=O)CC1CCC2(CC1)OOC1(O2)C2CC3CC(C2)CC1C3` (centres undefined), which Activity [3] is on record?
Answer: The Activity was 99.98%.

Question: What about the MSD [4] of the same molecule?
Answer: Its MSD is 10.2 days.

Question: Which results are given for `NC1CN(C(=O)c2ccc(C3CCC4(CC3)OOC3(OO4)C4CC5CC(C4)CC3C5)cc2)C1` (centres undefined)?
Answer: half-life [1]: < 4 h; IC50 [2]: 33 nM

Question: Which results are given for `CS(=O)(=O)O.c1cc(C2CCC3(CC2)OOC2(OO3)C3CC4CC(C3)CC2C4)ccc1CN1CCOCC1` (centres undefined)?
Answer: Activity [3]: 99.3%; MSD [4]: 25 days; solubility at 4 h [15]: 0.017 mg/mL; fraction unbound at 6 h, 2000 ng/ml [16]: < 0.001; solubility at 4 h [17]: < 0.0001 mg/mL; solubility at 4 h [18]: 0.172 mg/mL; solubility at 4 h [19]: > 9 mg/mL; fraction unbound at 1 µM [20]: < 0.001; Vd [21]: 11 L/kg; solubility at 4 h [22]: > 9 mg/mL; clearance [23]: 4.62 L/h/kg; half-life [24]: 8 h; half-life [25]: 6.35 h; metabolised at 4 h [26]: 10%; solubility at 4 h [27]: 0.018 mg/mL; solubility ([28]; simulated gi fluid, pH 5, 4 h): 0.76 mg/mL

Question: With `OC1CCC(c2ccc(CN3CCOCC3)cc2)CC1` (centres undefined) as the molecule, how does the Drug metabolism [5] read?
Answer: Its Drug metabolism is “Metabolite_Detected”.

Question: What about the Retention_time [6] of the same molecule?
Answer: Its Retention_time is 0.86 min.

Question: What about the Drug metabolism [7] of the same molecule?
Answer: Its Drug metabolism is “Metabolite_Detected”.

Question: And the Drug metabolism [8]?
Answer: Its Drug metabolism is “Metabolite_Detected”.

Question: Which half-life [1] does the source give for `O=C(NCC1CCNCC1)c1ccc(C2CCC3(CC2)OOC2(OO3)C3CC4CC(C3)CC2C4)cc1` (centres undefined) here?
Answer: Its half-life is less than 4 h.

Question: And the IC50 [2]?
Answer: Its IC50 is 5.3 nM.

Question: With `CNCCNC(=O)c1ccc(C2CCC3(CC2)OOC2(OO3)C3CC4CC(C3)CC2C4)cc1` (centres undefined) as the molecule, how does the half-life [1] read?
Answer: The half-life was less than 4 h.

Question: What about the IC50 [2] of the same molecule?
Answer: Its IC50 is 0.84 nM.

Question: Which half-life [1] does the source give for `CN1CCN(C(=O)c2ccc(C3CCC4(CC3)OOC3(OO4)C4CC5CC(C4)CC3C5)cc2)CC1` (centres undefined) here?
Answer: The half-life was less than 4 h.

Question: And the IC50 [2]?
Answer: Its IC50 is 6.4 nM.

Question: For `c1cc(C2CCC3(CC2)OOC2(O3)C3CC4CC(C3)CC2C4)ccc1OCCN1CCOCC1` (centres undefined) [listing 2 of 2 here], which AUCED90 [13] is on record?
Answer: The AUCED90 was 0.68 µg·h/mL.

Question: Which results are given for `NCCNC(=O)c1ccc(C2CCC3(CC2)OOC2(OO3)C3CC4CC(C3)CC2C4)cc1` (centres undefined)?
Answer: half-life [1]: < 4 h; IC50 [2]: 1.1 nM

Question: Which Drug metabolism [5] does the source give for `OCCNCc1ccc(C2CCC3(CC2)OOC2(OO3)C3CC4CC(C3)CC2C4)cc1` (centres undefined) here?
Answer: Its Drug metabolism is “Metabolite_Detected”.

Question: And the Retention_time [6]?
Answer: The Retention_time was 3.54 min.

Question: And the Drug metabolism [7]?
Answer: Its Drug metabolism is “Metabolite_Detected”.

Question: And the Drug metabolism [8]?
Answer: The Drug metabolism was “Metabolite_Detected”.

Question: For `CS(=O)(=O)O.c1cc(C2CCC3(CC2)OOC2(O3)C3CC4CC(C3)CC2C4)ccc1OCCN1CCOCC1` (centres undefined), which solubility at 4 h [15] is on record?
Answer: The solubility at 4 h was 0.034 mg/mL.

Question: What about the solubility at 4 h [18] of the same molecule?
Answer: Its solubility at 4 h is 0.24 mg/mL.

Question: What about the solubility at 4 h [19] of the same molecule?
Answer: Its solubility at 4 h is greater than 8 mg/mL.

Question: And the Vd [21]?
Answer: The Vd was 18 L/kg.

Question: And the solubility at 4 h [22]?
Answer: The solubility at 4 h was 6.8 mg/mL.

Question: And the bioavailability [29]?
Answer: The bioavailability was 100%.

Question: What about the solubility at 4 h [27] of the same molecule?
Answer: Its solubility at 4 h is 0.12 mg/mL.

Question: And the solubility at 4 h ([28]; FeSSIF, pH 5)?
Answer: Its solubility at 4 h is greater than 1.5 mg/mL.

Question: Which results are given for `O=C(c1ccc(C2CCC3(CC2)OOC2(OO3)C3CC4CC(C3)CC2C4)cc1)N1CCNCC1` (centres undefined)?
Answer: half-life [1]: < 4 h; Activity [3]: 99%; MSD [4]: 10 days; IC50 [2]: 3 nM
